Literature values, collected in US11077045B2, “Blood microperfusion to skin by Shilajit” (Natreon, Inc., priority 2018, dated 2021).

How the values were obtained:
[1] = transdermal preparation, subjects with diabetes
[2] = low-dose administration, rats

N=C(N)NCCC[C@H](N)C(=O)O [L-arginine]
blood flow in feet [1]: improved | microperfusion of rat skin [2]: increase microperfusion
